Test results taken from ChEMBL document CHEMBL1201862, “PubChem BioAssay data set” (2004).
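Compound exposure: 48 hours, 5 concentrations, 96-well plates. GI50: concentration for 50% inhibition of growth.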 Active and inactive are the calls of the source. No stated cut-off is given here; in the data, active = GI50 up to about 1.1 µM and inactive = higher.

Tests used:
Assay in all cases: inhibition of tumour cell growth, NCI panel, 48 h
TK-10 = test system: TK-10
CCRF-CEM = test system: CCRF-CEM
SK-MEL-2 = test system: SK-MEL-2
A549 = test system: A549
HL-60 = test system: HL-60
NCI/ADR-RES = test system: NCI/ADR-RES
OVCAR-3 = test system: OVCAR-3
K562 = test system: K562
HOP-92 = test system: HOP-92
SNB-19 = test system: SNB-19
HT-29 = test system: HT-29
NCI-H226 = test system: NCI-H226
UO-31 = test system: UO-31
OVCAR-8 = test system: OVCAR-8
DU-145 = test system: DU-145
ACHN = test system: ACHN
SF-295 = test system: SF-295
MCF7 = test system: MCF7
OVCAR-4 = test system: OVCAR-4
MDA-MB-435 = test system: MDA-MB-435

Measured: GI50

CC1(C)CC(=O)c2c([nH]c(=S)c(C#N)c2-c2ccc(Br)cc2)C1
inactive: TK-10 81.8 µM | CCRF-CEM 5.85 µM | SK-MEL-2 24.9 µM | A549 56.2 µM | HL-60 43.9 µM | NCI/ADR-RES > 100 µM | OVCAR-3 30.7 µM | K562 43.4 µM | HOP-92 17.3 µM | SNB-19 45.5 µM | HT-29 40.3 µM | NCI-H226 46.8 µM | UO-31 45.9 µM | OVCAR-8 49.9 µM | DU-145 61 µM | ACHN 66.1 µM | SF-295 35.7 µM | MCF7 40.7 µM | OVCAR-4 34.4 µM | MDA-MB-435 51.5 µM

O=C1C(Cl)=C(Cl)C(=O)C2=C1C1c3ccccc3C2c2ccccc21
inactive: TK-10 83.9 µM | CCRF-CEM 59 µM | SK-MEL-2 > 100 µM | A549 99.1 µM | HL-60 26.2 µM | NCI/ADR-RES 94.8 µM | OVCAR-3 36.1 µM | K562 38.6 µM | HOP-92 19.5 µM | SNB-19 49.5 µM | HT-29 > 100 µM | NCI-H226 > 100 µM | UO-31 47.6 µM | OVCAR-8 > 100 µM | DU-145 > 100 µM | ACHN 43.2 µM | SF-295 41.5 µM | MCF7 71.4 µM | OVCAR-4 34.3 µM | MDA-MB-435 77.4 µM

Nc1ccc2c(SCC(=O)Nc3ccccc3-c3ccccc3NC(=O)CSc3c4ccccc4nc4cc(N)ccc34)c3ccccc3nc2c1
inactive: TK-10 38 µM | CCRF-CEM 2.79 µM | SK-MEL-2 25.6 µM | A549 41 µM | HL-60 3.21 µM | NCI/ADR-RES 32.6 µM | OVCAR-3 22.2 µM | K562 2.71 µM | HOP-92 43.5 µM | SNB-19 18.9 µM | HT-29 29.6 µM | NCI-H226 29.3 µM | UO-31 20 µM | OVCAR-8 26.3 µM | DU-145 24.2 µM | ACHN 32.8 µM | SF-295 31.5 µM | MCF7 12.4 µM | OVCAR-4 29 µM | MDA-MB-435 22.1 µM

Cc1cc2c(nn1)-c1ccccc1C2=O
inactive: TK-10 > 10 µM | CCRF-CEM > 10 µM | SK-MEL-2 > 10 µM | A549 > 10 µM | HL-60 > 10 µM | NCI/ADR-RES > 10 µM | OVCAR-3 > 10 µM | K562 > 10 µM | HOP-92 > 10 µM | SNB-19 > 10 µM | HT-29 > 10 µM | NCI-H226 > 10 µM | UO-31 > 10 µM | OVCAR-8 > 10 µM | DU-145 > 10 µM | ACHN > 10 µM | SF-295 > 10 µM | MCF7 > 10 µM | OVCAR-4 > 10 µM | MDA-MB-435 > 10 µM
